Measurements published in patent US10954214B2 (Janssen Pharmaceutica NV, priority 2016, dated 2021).

Assays:
[1] = molecular target: full-length MALT1 protein (Strep-MALT1(1-824)-His) (Homo sapiens (Human), UniProt Q9UDY8); assay: MALT1 Biochemical Protease Assay (Ac-LRSR-AMC substrate); conditions: 10 nM FL MALT1, 200 μM Ac-LRSR-AMC, 4 h at RT; read-out: MALT1_Biochemical activity (Ac-LRSR-amc) IC50
In short: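 Full-length MALT1 pre-incubated with compounds (30 μM to 0.5 nM, 11 threefold steps) for 50 min at RT. After Ac-LRSR-AMC was added, the reaction ran 4 h at RT and AMC fluorescence was read. IC50 and Hill slope from curve fitting against no-enzyme and no-compound controls.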

[2] = test system: Jurkat cells; assay: PMA Induced IL2 Production In Jurkat Cells; assay type: cell-based; conditions: Homo sapiens, PMA/Ionomycin, 20 h, read-out: IL-2 prod h Jurkat PMA IC50
Protocol: Jurkat cells were maintained in complete RPMI 1640 media containing 10% fetal bovine serum, 10 mM HEPES, 100 units/mL of penicillin and 100 μg/mL of streptomycin. Prior to the assay, compounds were made 2- to 4-fold serial dilutions in DMSO. A volume of 10 μL of DMSO-diluted compound in each well were further diluted into 240 μL RPMI1640 complete media. Jurkat cells were harvested by centrifuge at 1200 RPM for 5 min, washed one time with RPMI 1640 media, and suspended in fresh complete RPMI 1640 media at concentration of 1.25×10^6 cell/mL. A volume of 160 uL of Jurkat cells (2×10^5 cells) were seeded in each well of 96 well plate-bottom plates. A volume of 20 uL of diluted compound in RMPI 1640 complete media were added to each well and incubated with Jurkat cells for 30 min at 37° C. in a 5% CO2 incubator. A volume 20 μL of diluted PMA/Ionomycin (81 nM/1.3 uM respectively, ebioscience, catalog number 00-4970-93) in RMPI 1640 complete media were added to each well. After incubation at 37° C. in 5% CO2 incubator for 20 h, supernatants were harvested. IL-2 concentration was assessed by ELISA (IL2 Duoset, R&D Systems, catalog number DY202). Colorimetric intensity at 450 nm was read by Spectramax plate reader and analyzed with Softmax Pro software. Cell viability was assessed by Cell Titer Glo kit (Promega, catalog number G7571) using Victor Luminescence reader (Victor 3V 4202938 by Perkin Elmer).

[3] = test system: IL6 secretion by TMD8 ABC-DLBCL cells; assay: Human IL6 Mesoscale assay (TMD-8); assay type: cell-based; conditions: Homo sapiens, TMD8; TMD-8 cells, 24 h
In short: (§1)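 After 24 h at 37 °C with test compounds (15 μM down to 58.6 nM, 9 twofold steps, 0.3% DMSO), IL6 and IL10 secreted by 100,000 OCI-LY3 or TMD8 cells per well were measured in supernatants with a Mesoscale immunoassay. Data were scaled between DMSO wells (high) and RN486 treatment (low).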

[4] = test system: IL10 secretion by TMD8 ABC-DLBCL cells; assay: Human IL10 Mesoscale assay (TMD-8); assay type: cell-based; conditions: Homo sapiens, TMD8; TMD-8 cells, 24 h
In short: as §1

[5] = test system: OCI-Ly3 cells; assay: 4-day proliferation assay, OCI-Ly3; assay type: cell-based, human; conditions: Homo sapiens, 96 h, 4 days incubation, CellTiterGLO, read-out: Anti-proliferation: OCI-LY-3 IC50
In short: (§2)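 TMD8 and OCI-Ly3 cells were seeded at 10,000 per well and grown 4 days at 37° C, 5% CO2 without beta-mercaptoethanol. Viability was read by CellTiter-Glo luminescence. IC50 and Hill slope were fitted relative to the low control median.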

[6] = test system: TMD8 cells; assay: 4-day proliferation assay, TMD8; assay type: cell-based; conditions: Homo sapiens, 96 h, 4 days incubation, CellTiterGLO, read-out: Anti-proliferation: TMD-8 IC50
In short: as §2

Sequence of full-length MALT1 protein (Strep-MALT1(1-824)-His) (Q9UDY8 whole entry): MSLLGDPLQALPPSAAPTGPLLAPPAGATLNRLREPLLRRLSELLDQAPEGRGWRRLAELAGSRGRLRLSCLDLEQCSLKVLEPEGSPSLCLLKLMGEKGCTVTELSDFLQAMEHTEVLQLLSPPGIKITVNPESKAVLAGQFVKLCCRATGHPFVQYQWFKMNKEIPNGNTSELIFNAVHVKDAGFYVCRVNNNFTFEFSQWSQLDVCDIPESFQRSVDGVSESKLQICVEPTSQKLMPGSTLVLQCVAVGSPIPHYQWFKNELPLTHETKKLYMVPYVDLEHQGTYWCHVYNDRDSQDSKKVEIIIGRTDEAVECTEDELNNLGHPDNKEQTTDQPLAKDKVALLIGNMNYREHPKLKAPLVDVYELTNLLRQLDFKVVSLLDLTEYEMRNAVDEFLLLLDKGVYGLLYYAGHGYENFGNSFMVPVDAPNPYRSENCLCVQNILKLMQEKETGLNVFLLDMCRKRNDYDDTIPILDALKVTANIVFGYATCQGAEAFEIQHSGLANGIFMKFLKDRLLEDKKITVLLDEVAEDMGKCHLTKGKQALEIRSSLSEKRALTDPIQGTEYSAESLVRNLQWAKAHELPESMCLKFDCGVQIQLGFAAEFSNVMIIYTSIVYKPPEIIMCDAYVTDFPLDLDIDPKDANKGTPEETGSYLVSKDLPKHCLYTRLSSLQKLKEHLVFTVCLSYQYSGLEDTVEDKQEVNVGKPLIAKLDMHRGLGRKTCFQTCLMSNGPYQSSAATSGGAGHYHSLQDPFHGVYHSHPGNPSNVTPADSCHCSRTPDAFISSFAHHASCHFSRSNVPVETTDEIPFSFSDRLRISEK

| IC50 [1] [nM] | IC50 [2] [nM] | IC50 [3] [nM] | IC50 [4] [nM] | IC50 [5] [nM] | Structure (SMILES) | IC50 [6] [nM] |
| --- | --- | --- | --- | --- | --- | --- |
| 100 | 380 | 200 | 240 | 1070 | Cc1ncn(-c2ncc(NC(=O)c3cnn(-c4cncc5ccccc45)c3C(F)(F)F)cc2Cl)n1 [Cpd 53, N-(5-Chloro-6-(3-methyl-1H-1,2,4-triazol-1-yl)pyridin-3-yl)-1-(isoquinolin-4-yl)-5-(trifluoromethyl)-1H-pyrazole-4-carboxamide] | ~13500 |
| 20 | 21 | 46 | 14 | 1150 | O=C(Nc1ccc(-n2nccn2)c(Cl)c1)c1cnn(-c2cncc3ccccc23)c1C(F)(F)F [Cpd 38, N-(3-chloro-4-(2H-1,2,3-triazol-2-yl)phenyl)-1-(isoquinolin-4-yl)-5-(trifluoromethyl)-1H-pyrazole-4-carboxamide] | 3800 |
| 20 | 31 | 107 | 47 | 90 | O=C(Nc1cnc(-c2ncco2)c(Cl)c1)c1cnn(-c2cncc3ccccc23)c1C(F)(F)F [Cpd 50, N-(5-Chloro-6-(oxazol-2-yl)pyridin-3-yl)-1-(isoquinolin-4-yl)-5-(trifluoromethyl)-1H-pyrazole-4-carboxamide] | 7080 |
| 11 | 9 | ~48 | ~10 | ~190 | N#Cc1cc(NC(=O)c2cnn(-c3cncc4ccccc34)c2C(F)(F)F)cnc1-n1nccn1 [Cpd 47, N-(5-cyano-6-(2H-1,2,3-triazol-2-yl)pyridin-3-yl)-1-(isoquinolin-4-yl)-5-(trifluoromethyl)-1H-pyrazole-4-carboxamide] | 8130 |
| 63 | 270 | 135 | 141 | 1910 | Cc1ccc2cncc(-n3ncc(C(=O)Nc4cnc(-n5nccn5)c(Cl)c4)c3C(F)(F)F)c2c1 [Cpd 36, N-(5-Chloro-6-(2H-1,2,3-triazol-2-yl)pyridin-3-yl)-1-(6-methylisoquinolin-4-yl)-5-(trifluoromethyl)-1H-pyrazole-4-carboxamide] | 7940 |
| 275 | 370 | 110 | 269 | 460 | Cc1ncnn1-c1ncc(NC(=O)c2cnn(-c3cncc4ccccc34)c2C(F)(F)F)cc1Cl [Cpd 54, N-(5-Chloro-6-(5-methyl-1H-1,2,4-triazol-1-yl)pyridin-3-yl)-1-(isoquinolin-4-yl)-5-(trifluoromethyl)-1H-pyrazole-4-carboxamide] | 8710 |
| 60 | 54 | 102 | 81 | ~260 | O=C(Nc1ccc(-n2ccnn2)c(Cl)c1)c1cnn(-c2cncc3ccccc23)c1C(F)(F)F [compound 43, N-(3-chloro-4-(1H-1,2,3-triazol-1-yl)phenyl)-1-(isoquinolin-4-yl)-5-(trifluoromethyl)-1H-pyrazole-4-carboxamide] | 4680 |
| 48 | 95 | 30 | 35 | 150 | O=C(Nc1cnc(-n2nccn2)c(Cl)c1)c1cnn(-c2ccc(F)c3ncccc23)c1C(F)(F)F [Cpd 40, N-(5-Chloro-6-(2H-1,2,3-triazol-2-yl)pyridin-3-yl)-1-(8-fluoroquinolin-5-yl)-5-(trifluoromethyl)-1H-pyrazole-4-carboxamide] | 6170 |
| 155 | 18 | ~83 | 76 | 410 | N#Cc1ncc(NC(=O)c2cnn(-c3cncc4ccccc34)c2C(F)(F)F)cc1C(F)(F)F [Cpd 49, N-(6-cyano-5-(trifluoromethyl)pyridin-3-yl)-1-(isoquinolin-4-yl)-5-(trifluoromethyl)-1H-pyrazole-4-carboxamide] | 5010 |
